In the supplement of paper PMC8960247:
Where a name gives a salt, the structure may show the parent alone. ± gives the standard error.

Tests used:
621-102 (TSC2-deficient) = assay: relative viability vs DMSO; higher = less cytotoxic; details: serum: 10% FBS, 72 h
621-103 (TSC2-rescued) = assay: as above; details: serum: 10% FBS, 72 h
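Further: immortalized renal angiomyolipoma cells stably carrying empty vector or TSC2, dosed in 384-well plates in DMEM, viability normalized to vehicle-treated wells within each plate.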

Compound	relative viability (621-102 (TSC2-deficient); 0.0001 µM)	relative viability (621-102 (TSC2-deficient); 0.001 µM)	relative viability (621-102 (TSC2-deficient); 0.01 µM)	relative viability (621-102 (TSC2-deficient); 0.1 µM)	relative viability (621-102 (TSC2-deficient); 1 µM)	relative viability (621-102 (TSC2-deficient); 10 µM)	relative viability (621-103 (TSC2-rescued); 0.0001 µM)	relative viability (621-103 (TSC2-rescued); 0.001 µM)	relative viability (621-103 (TSC2-rescued); 0.01 µM)	relative viability (621-103 (TSC2-rescued); 0.1 µM)	relative viability (621-103 (TSC2-rescued); 1 µM)	relative viability (621-103 (TSC2-rescued); 10 µM)
COC(=O)C1=C(C)NC(C)=C(C(=O)OCCN2CCN(C(c3ccccc3)c3ccccc3)CC2)C1c1cccc([N+](=O)[O-])c1 (stereo unspecified) [Manidipine HCl (CV-4093)]	110.7 ± 1%	110.4 ± 0.56%	104.3 ± 0.49%	109 ± 2%	107 ± 4%	94.55 ± 0.56%	90.9 ± 2%	90 ± 1.3%	98 ± 1.7%	100.85 ± 0.1%	89.9 ± 1.2%	74.2 ± 1.2%
COc1ccc(S(=O)(=O)Nc2cccnc2Nc2ccc(O)cc2)cc1 [ABT-751]	112 ± 3.7%	114 ± 3.9%	111 ± 1.8%	110 ± 5.1%	44.8 ± 1.6%	49.55 ± 0.36%	108 ± 3.8%	108 ± 2.6%	105 ± 3.2%	98 ± 1.5%	44.2 ± 2.2%	44.8 ± 0.75%
CCOC(=O)[C@H](CCc1ccccc1)N[C@H]1CCc2ccccc2N(CC(=O)O)C1=O [Benazepril HCl]	68 ± 2.9%	82 ± 2.6%	83 ± 5.2%	81.1 ± 7.4%	74.6 ± 9.9%	69.8 ± 4.9%	82.5 ± 11%	89.7 ± 11%	89.6 ± 6.1%	98.8 ± 6.3%	95.2 ± 4.9%	89.9 ± 6.7%
CNC(=O)Nc1ccc(-c2nc(N3CC4CCC(C3)O4)c3cnn(C4CCC5(CC4)OCCO5)c3n2)cc1	97.36 ± 0.31%	93.4 ± 2.7%	76.3 ± 3.4%	37.41 ± 0.17%	25.6 ± 0.73%	9.06 ± 0.58%	108 ± 6.1%	95.7 ± 2.1%	73.8 ± 4.8%	44.1 ± 1.1%	34.1 ± 0.59%	22 ± 0.064%
Nc1nc(F)nc2c1ncn2[C@@H]1O[C@H](COP(=O)(O)O)[C@@H](O)[C@@H]1O [Fludarabine Phosphate]	98.1 ± 1.6%	105 ± 1.1%	101.7 ± 0.47%	106 ± 1.9%	96.4 ± 7.2%	94 ± 1.7%	104 ± 2.1%	104 ± 2.7%	103.3 ± 0.34%	102.6 ± 0.82%	100 ± 1.7%	89.1 ± 6.1%
C[N+]1(C)[C@@H]2C[C@@H](OC(=O)C(O)(c3cccs3)c3cccs3)C[C@H]1[C@@H]1O[C@@H]12 [Tiotropium Bromide hydrate]	119 ± 6%	110 ± 3.6%	116.3 ± 0.16%	112.5 ± 0.9%	116 ± 1.3%	117.1 ± 0.39%	77.6 ± 0.97%	97.55 ± 0.64%	105.9 ± 0.43%	100 ± 2.9%	103 ± 3.4%	103 ± 2.6%
CCc1c2c(nc3ccc(OC(=O)N4CCC(N5CCCCC5)CC4)cc13)-c1cc3c(c(=O)n1C2)COC(=O)[C@]3(O)CC [Irinotecan HCl Trihydrate]	94 ± 3.9%	98.4 ± 3%	97.8 ± 1.5%	108 ± 4.1%	99.4 ± 3%	63.351 ± 0.053%	107 ± 5.2%	107 ± 3.3%	105 ± 1.8%	101 ± 5.9%	99.3 ± 1.9%	57.5 ± 2.7%
CC(C)NCC(O)c1ccc(NS(C)(=O)=O)cc1 (stereo unspecified) [Sotalol HCl]	79.7 ± 5.2%	99.6 ± 3.7%	108.1 ± 1%	115 ± 6.1%	114 ± 2.9%	107 ± 6.9%	92 ± 1.4%	115 ± 2%	113 ± 1.3%	118 ± 5.8%	118 ± 1.5%	108 ± 1.7%
CC(=O)Nc1ccccc1 [Acetanilide]	87.9 ± 1.9%	111 ± 0.29%	109 ± 2.3%	92 ± 3%	113 ± 3.1%	104 ± 1.7%	104 ± 1.9%	102 ± 4.6%	106.2 ± 0.32%	101 ± 4.2%	103 ± 2.6%	91.3 ± 1.3%
CC[C@H](c1ccc(O)cc1)[C@@H](CC)c1ccc(O)cc1 [Hexestrol (Bibenzyl)]	105 ± 2.8%	121 ± 3.7%	108 ± 5.3%	100 ± 6.5%	113 ± 2.7%	99.9 ± 5.4%	89.4 ± 5.1%	89.3 ± 4%	90.4 ± 1%	90 ± 2.3%	95 ± 2.3%	95.35 ± 0.45%
Cc1[nH]c(/C=C2\C(=O)Nc3ccc(S(=O)(=O)N(C)c4cccc(Cl)c4)cc32)c(C)c1C(=O)N1CCN(C)CC1	98.4 ± 1.2%	101 ± 2.5%	101 ± 1.8%	91.6 ± 1.4%	100 ± 2.6%	87.2 ± 1.5%	97.3 ± 1.6%	97.86 ± 0.64%	98.4 ± 2%	99.52 ± 0.97%	101.8 ± 0.38%	91.5 ± 3.8%
NCCc1ccc(O)c(O)c1 [Dopamine HCl]	97.5 ± 9.6%	112 ± 3.6%	107 ± 3%	105 ± 2.4%	89.7 ± 7.8%	74.1 ± 1.9%	102.3 ± 0.35%	99.6 ± 4.5%	99 ± 1.9%	100.1 ± 1%	92.8 ± 2%	95.4 ± 3.1%
C=CC(=O)Nc1cccc(Sc2nc(Nc3ccc(N4CCN(C)CC4)cc3)ncc2Cl)c1 [WZ8040]	98.7 ± 3.8%	97.6 ± 2.1%	99.3 ± 3.3%	95.9 ± 1.6%	98 ± 3.3%	17.7 ± 4.6%	100 ± 1.2%	100 ± 1.6%	99.8 ± 1.3%	100 ± 1.5%	100.6 ± 0.89%	14.9 ± 0.36%
CC(=O)NC[C@H]1CN(c2ccc(N3CCOCC3)c(F)c2)C(=O)O1 [Linezolid]	99.5 ± 7.5%	108 ± 2.5%	102.8 ± 0.25%	105 ± 2.2%	102 ± 4.4%	101.1 ± 0.19%	105 ± 5.3%	110 ± 4.4%	98.2 ± 2.4%	101 ± 0.73%	103 ± 1.3%	104 ± 3%
CC(C)OC(=O)C1=CN(C(=O)c2ccc(F)c(F)c2)CC(C)(C)c2c1[nH]c1ccccc21	111 ± 1.3%	106.3 ± 0.78%	104 ± 1.6%	102 ± 6.7%	101 ± 2.5%	101 ± 3.1%	102.7 ± 0.95%	104 ± 1.7%	98.4 ± 1.8%	99 ± 2.6%	94.1 ± 5.9%	99.22 ± 0.99%
C[C@]12CC[C@H]3[C@@H](CC[C@@]45O[C@@H]4C(O)=C(C#N)C[C@]35C)[C@@H]1CC[C@@H]2O [Trilostane]	104 ± 4.1%	94 ± 6%	93.7 ± 0.94%	101 ± 2.1%	98.3 ± 5.8%	99.2 ± 5%	102 ± 1.8%	106.6 ± 0.25%	106.2 ± 0.28%	101 ± 2.7%	102.8 ± 0.34%	100 ± 1.9%
Nc1ccn([C@@H]2O[C@H](CO)[C@@H](O)[C@@H]2O)c(=O)n1 [Cytarabine (Cytosar-U)]	88.2 ± 4%	93.49 ± 0.71%	96.2 ± 2.2%	89.35 ± 0.62%	74.5 ± 2.8%	49.4 ± 1.1%	115 ± 4.8%	106 ± 4.1%	110 ± 0.82%	105.2 ± 0.25%	88.313 ± 0.062%	38 ± 0.93%
Fc1cc(-c2cccc3ncc(-c4cnn(C5CCNCC5)c4)nc23)cc(F)c1CN1CCOCC1 [NVP-BSK805 dihydrochloride]	102 ± 3.5%	99.9 ± 4%	101 ± 2.5%	103 ± 1.4%	89.2 ± 9.6%	4.33 ± 1.8%	88.7 ± 5.9%	102 ± 1.9%	111 ± 4.3%	104 ± 4.5%	77.1 ± 0.88%	4.07 ± 1.5%
COc1ccccc1N1CCN(CCN(C(=O)C2CCCCC2)c2ccccn2)CC1	108 ± 0.74%	102.3 ± 0.41%	100 ± 1.5%	104.2 ± 0.32%	97.19 ± 0.27%	99.4 ± 1%	102.1 ± 1%	99 ± 5.8%	99.5 ± 5.7%	110 ± 1.8%	108 ± 1.8%	98.5 ± 2.6%
Cc1cc(OCCCS(C)(=O)=O)cc(C)c1-c1cccc(COc2ccc3c(c2)OC[C@H]3CC(=O)O)c1 [TAK-875]	61.2 ± 7.8%	61.5 ± 4%	75.9 ± 5.2%	80.9 ± 4.5%	84.24 ± 0.76%	84.2 ± 5.3%	103 ± 3%	102 ± 1.9%	103.7 ± 0.45%	102.5 ± 0.61%	103 ± 3.5%	95.16 ± 0.36%
CCCCNc1ccc(C(=O)OCCN(C)C)cc1 [Tetracaine HCl]	113 ± 2.6%	105 ± 2.3%	100 ± 3.7%	102 ± 3.7%	102 ± 3.2%	105 ± 1.1%	72.9 ± 4.8%	91.42 ± 0.14%	90.6 ± 5.6%	103 ± 6.7%	78.5 ± 6.8%	74.1 ± 2.6%
C[C@@H]1CCO[C@H]2Cn3cc(C(=O)NCc4ccc(F)cc4F)c(=O)c(O)c3C(=O)N12	102 ± 1.5%	104 ± 2.7%	102.2 ± 0.83%	106 ± 2.5%	93.7 ± 9.2%	108 ± 3.5%	111.7 ± 0.85%	109 ± 5.8%	111 ± 2.1%	117 ± 2.9%	112 ± 4%	109 ± 3.2%
COc1cc(OC)c(NC(=O)Nc2cc(C)on2)cc1Cl	83.6 ± 4.5%	92 ± 5%	97.3 ± 3.8%	89.4 ± 4.5%	96.7 ± 7%	92.8 ± 3.9%	113 ± 2.2%	109 ± 3.5%	105 ± 3.8%	113 ± 2.9%	109 ± 2.6%	111 ± 2.2%
CN1CCN(c2c(F)cc3c(=O)c(C(=O)O)cn(CCF)c3c2F)CC1 [Fleroxacin (Quinodis)]	104 ± 1.2%	111 ± 3.5%	102 ± 2.7%	91.53 ± 0.47%	90.9 ± 1.1%	91.6 ± 4.7%	96.7 ± 2.6%	92.52 ± 0.83%	92.3 ± 1.4%	98.4 ± 1.5%	105 ± 5%	109 ± 1.7%
Cc1nc(N)sc1-c1ccnc(Nc2ccc(N3CCOCC3)cc2)n1 [CYC116]	90.7 ± 2.7%	102 ± 4.6%	113.07 ± 0.029%	100.4 ± 0.47%	93.08 ± 0.77%	50.55 ± 0.13%	91.6 ± 5.4%	94.51 ± 0.42%	101.6 ± 0.83%	95.1 ± 4.3%	72 ± 3.4%	28.3 ± 0.44%
N#Cc1c(O)c2c(-c3ccc(-c4ccccc4O)cc3)csc2[nH]c1=O	87.4 ± 2.6%	101.1 ± 0.29%	99.8 ± 4.8%	93.17 ± 0.38%	98.55 ± 0.91%	87.2 ± 3.2%	99.2 ± 3.3%	95.56 ± 0.75%	96.1 ± 3.5%	97.25 ± 0.34%	100.3 ± 0.89%	105 ± 3.5%
O=C(CN1C(=O)C2(CCCC2)NC[C@H]1c1cc(F)cc(F)c1)Nc1ccc2c(c1)C[C@@]1(C2)C(=O)Nc2ncccc21 [MK 3207 hydrochloride]	114 ± 1.5%	114 ± 1.4%	114.8 ± 0.14%	113 ± 3.3%	116.5 ± 0.26%	104 ± 2.5%	103 ± 1.3%	103 ± 1.4%	101.4 ± 0.9%	101.2 ± 0.77%	102 ± 2%	102 ± 1.4%
Cc1ccc(CN2CCNCC2)cc1NC(=O)CNc1ccc(F)c(F)c1	112 ± 2.2%	98.3 ± 5.5%	100.6 ± 0.38%	104 ± 3.2%	88 ± 1.4%	92.96 ± 0.19%	113 ± 3.6%	98.9 ± 2%	108 ± 3.7%	102 ± 2.5%	95.4 ± 2.7%	90.85 ± 0.73%
